Experimental data published in ChEMBL document CHEMBL5214987, “Scaffold hopping via ring opening enables identification of acyclic compounds as new complement Factor D inhibitors” (Bioorg Med Chem, 2022).

Experiments:
in vitro = conditions: rabbit, rabbit erythrocytes
Description: Hemolytic activity against rabbit erythrocytes incubated for 30 mins in presence of human serum and measured by hemolysis assay

[1] = Half-life in male Sprague-Dawley rat at 2.5 mg/kg, iv; format: ADME, organism-based; conditions: in vivo
[2] = Cmax in male Sprague-Dawley rat at 2.5 mg/kg, iv; format: ADME, organism-based; set-up: dose 2.5 mg/kg, route iv; conditions: in vivo
[3] = Tmax in male Sprague-Dawley rat at 2.5 mg/kg, iv; format: ADME, organism-based; conditions: in vivo
[4] = AUC (0 to 24 hrs) in male Sprague-Dawley rat at 2.5 mg/kg, iv; format: ADME, organism-based; set-up: time < 24 hr, dose 2.5 mg/kg, route iv; conditions: in vivo
[5] = Half-life in male Sprague-Dawley rat at 10 mg/kg, po; format: ADME, organism-based; conditions: in vivo
[6] = Cmax in male Sprague-Dawley rat at 10 mg/kg, po; format: ADME, organism-based; set-up: dose 10 mg/kg, route po; conditions: in vivo
[7] = Tmax in male Sprague-Dawley rat at 10 mg/kg, po; format: ADME, organism-based; conditions: in vivo
[8] = AUC (0 to 24 hrs) in male Sprague-Dawley rat at 10 mg/kg, po; format: ADME, organism-based; set-up: time < 24 hr, dose 10 mg/kg, route po; conditions: in vivo
[9] = Initial plasma concentration in male Sprague-Dawley rat at 2.5 mg/kg, iv; format: ADME, organism-based
[10] = AUClast in male Sprague-Dawley rat at 2.5 mg/kg, iv; format: ADME, organism-based; set-up: time 0 - last, dose 2.5 mg/kg, route iv; conditions: in vivo
[11] = Clearance in male Sprague-Dawley rat at 2.5 mg/kg, iv; format: ADME, organism-based; conditions: in vivo
[12] = Volume of distribution at steady state in male Sprague-Dawley rat at 2.5 mg/kg, iv; format: ADME, organism-based; conditions: in vivo, read-out: Vdss
[13] = MRTlast at steady state in male Sprague-Dawley rat at 2.5 mg/kg, iv; format: ADME, organism-based; conditions: in vivo
[14] = AUClast in male Sprague-Dawley rat at 10 mg/kg, po; format: ADME, organism-based; set-up: time 0 - last, dose 10 mg/kg, route po; conditions: in vivo
[15] = MRTlast in male Sprague-Dawley rat at 10 mg/kg, po; format: ADME, organism-based; conditions: in vivo
[16] = Oral bioavailability in male Sprague-Dawley rat at 10 mg/kg; format: ADME, organism-based; conditions: in vivo

Compound `NC(=O)c1nn(CC(=O)N(CC(=O)NCc2cccc(Cl)c2F)C2CC2)c2ccc(NC(=O)NC3CCCCC3)cc12` has an IC50 at 30 min (in vitro) of 76 nM.
`CCN(CC)CCNC(=O)Nc1ccc2c(c1)c(C(N)=O)nn2CC(=O)N(CC(=O)NCc1cccc(Cl)c1F)C1CC1` gave an IC50 at 30 min (in vitro) of 110 nM.
For `NC(=O)c1nn(CC(=O)N(CC(=O)NCc2cccc(Cl)c2F)C2CC2)c2ccc(NC(=O)N3CCN(Cc4ccc(F)cc4)CC3)cc12`, the IC50 at 30 min (in vitro) was 17 nM.
With `NC(=O)c1nn(CC(=O)N2CCC[C@H]2C(=O)NCc2cccc(Cl)c2F)c2ccccc12` the half-life [1] was 298 min, the Cmax [2] was 6740 ng/mL and the Tmax [3] was 4.98 min. It also gave an AUC(0-t) at 24 h [4] of 3410 ng·h/mL, a half-life [5] of 221 min and a Cmax [6] of 69.3 ng/mL. It also gave a Tmax [7] of 30 min and an AUC(0-t) at 24 h [8] of 257 ng·h/mL.
`COC(=O)c1ccc2c(C(N)=O)nn(CC(=O)N(CC(=O)NCc3cccc(Cl)c3F)C3CC3)c2c1` gave an IC50 at 30 min (in vitro) of 220 nM.
Work on `NC(=O)c1nn(CC(=O)N(CC(=O)NCc2cccc(Cl)c2F)C2CC2)c2ccc(NC(=O)N3CCCC(F)(F)C3)cc12` yielded an IC50 at 30 min (in vitro) of 17 nM.
In the case of `NC(=O)c1nn(CC(=O)N(CC(=O)NCc2cccc(Cl)c2F)C2CC2)c2ccc(NC(=O)N3CCN(C4CC4)CC3)cc12`, the IC50 at 30 min (in vitro) is reported as 64 nM.
For `CC(C)(C)NC(=O)Nc1ccc2c(c1)c(C(N)=O)nn2CC(=O)N(CC(=O)NCc1cccc(Cl)c1F)C1CC1`, the IC50 at 30 min (in vitro) was 73 nM.
With `CC(C)(C)OC(=O)Nc1ccc2c(c1)c(C(N)=O)nn2CC(=O)N(CC(=O)NCc1cccc(Cl)c1F)C1CC1` the IC50 at 30 min (in vitro) was 34 nM.
Work on `CN1CCC(N(C)C(=O)Nc2ccc3c(c2)c(C(N)=O)nn3CC(=O)N(CC(=O)NCc2cccc(Cl)c2F)C2CC2)CC1` yielded a half-life [1] of 24.6 min, a half-life [5] of 69 min and a Cmax [6] of 113 ng/mL. It also gave a Tmax [7] of 30 min, a C0 [9] of 9650 ng/mL and an AUC(0-t) [10] of 3130 ng·h/mL. It also gave a clearance [11] of 13.5 mL/min/kg, a Vd [12] of 0.3 L/kg and an MRT last [13] of 21 min. The AUC(0-t) [14] was 209 ng·h/mL, the MRT last [15] was 119 min and the bioavailability [16] was 1.7%. The IC50 at 30 min (in vitro) was 30 nM.
